{"source": "patent US20240207202A1", "about": "“COMBINATION THERAPIES TARGETING MITOCHONDRIAL BIOGENESIS FOR CANCER THERAPY” (The Wistar Institute of Anatomy and Biology, priority 2015, published 2024)", "system": "mitochondrial respiration", "assay": "Real-time oxygen consumption rates (Seahorse XF 24) in WM9 cells", "format": "cell-based, human", "settings": "WM9, 72 h, Gamitrinib 1 μM added to PLX4720 10 μM and PD0325901 1 μM", "description": "FIGS. 5A-5I. Gamitrinib, An Inhibitor of Mitochondrial Hsp90-directed Protein Folding, Suppresses Mitochondrial Biogenesis and Bioenergetics (A) Induction of apoptosis and cell death by PSVue 643 staining in WM9 melanoma cells treated for 72 h with the combination of Gamitrinib (Gami), Rapamycin, Phenformin (Phen), BEZ235 or 2,4-DNP at titrated doses and PLX4720 at 10 μM, PD0325901 at 1 μM and Gamitrinib at 2.5 μM. Cells treated with DMSO were used as the control. The data represent the average of 2 biological replicates. (B) Relative cell viability assessed by CellTiter Glo in WM9 cells treated for 72 h with DMSO, PLX4720 at 10 μM or the combination of PLX4720 at 10 μM and PD0325901 at 1 μM together with Gamitrinib at titrated doses. (C) Immunoblotting of proteins related to OxPhos, glycolysis, autophagy and the MAPK pathway in WM9 cells treated with PLX4720 at 10 μM and Gamitrinib as single inhibitors or in combination during a time course of 72 h. Cells treated with DMSO are used as the control. (D) Real-time oxygen consumption in WM9 cells subjected to the metabolic stress test with Seahorse XF 24 Analyzer. […] (H) Relative gene expression of 7 representative glycolysis genes assessed by qRT-PCR in WM9 cells treated for 48 h with DMSO or the combination of PLX4720 at 10 μM and PD0325901 at 1 μM with or without the addition of Gamitrinib at 2.5 μM. […]", "data": [{"substance": "Gamitrinib", "values": [{"measurement": "oxygen consumption rates (basal respiration, proton leak, ATP production, maximal respiration, spare respiratory capacity)", "value": "significantly inhibited all key parameters of OCR"}]}]}
